One molecule from patent US9969755B2, “Photodynamic therapy photosensitizers” (The Royal Institution for the Advancement of …, priority 2016, dated 2018) can be followed below.

≈ marks a conversion by molar mass, not a printed value.

Test [1] deals with clinical biofilm-producing methicillin-resistant Staphylococcus aureus (MRSA). The test is described as follows: Photodynamic inactivation of MRSA with ciprofloxacin as stressor. It counts as cell-based. The text has this:
The strain was a clinical biofilm-producing methicillin-resistant Staphylococcus aureus (MRSA). […] Samples “without exposure to light” were kept wrapped with aluminum foil. Samples “with exposure to light” were irradiated with a LED panel having the following characteristics: 1.6 mW/cm^2 power output with a maxima (centered) at 520 nm and a full width at half maximum (FWHM) of 31 nm. The LED panel consisted of 5 lamps and was placed 10 cm from the sample.

The nature of test [2]: Activation of compounds 7 and 8 with dicumyl peroxide (cumyloxyl radicals). The following applies: 9 with respect to 7; reaction with cumyloxyl radicals/ROS, 1 equivalent sacrificial PMHC. It counts as physicochemical. On the procedure: Compounds 7 and 8 were oxidized/activated in air equilibrated acetonitrile solution upon photolysis of a 100 μM dicumyl peroxide. Irradiation was performed within a fluorimeter to generate ROS upon exciting with ultraviolet light at 263 nm (2.4 mW/cm^2). The fluorescence intensity at the emission maxima of the probes was monitored over time.
Activation of the dormant photosensitizer 7 or 8 (deactivation of PeT) following their reaction with ROS was subsequently tested in the presence of alkoxyl radicals. These ROS were generated at a constant rate upon photolysis at 263 nm of an air equilibrated 100 μM dicumyl peroxide solution in acetonitrile. We followed over time the increase in fluorescence intensity (drop in PeT) to monitor the extent of activation, see FIG. 16. Activation was complete once the intensity reached a plateau.^28,45 At this point, the trap segment in 7 and 8 reacted to completion with alkoxyl radicals to generate 9 and 10, respectively. […] Deactivation of PeT in the singlet excited state in turn manifested in the ca. 7-fold and 2-fold emission enhancements recorded for 9 vs 7, and 10 vs 8, respectively (FIG. 16).

Test [3] has as its system E. coli ATCC 25922. Description: Antibacterial photodynamic inactivation, regular vs hydrogen peroxide stressed bacteria (CFU counts). The format is cell-based. On the procedure:
The microorganism used for this study is E. coli ATCC 25922. Stock cultures were preserved at −70° C. using glycerol 10% (v/v) as the cryoprotectant, and the strain was grown in Luria Bertania broth (LB). Bacterial culture was prepared inoculating a single colony from a pure culture. After overnight incubation at 37° C. for 18 h, the culture reached a density of approximately 1×10^9 CFU/mL and it was diluted to 10^6 CFU/mL.
At the end of the irradiation time, 100 μL aliquots were placed in 96 wells from each tube and serially diluted 10-fold in PBS to obtain dilutions of 10^1 to 10^4 fold, in addition to the original concentration, on agar plates to determine CFU. Viability counts were performed at 0 and 1 hour in either dark or light conditions from each dilution, 10 μL aliquots were plated on LB agar. Plates were streaked in triplicate and incubated for 18 h at 37° C. Each experiment was performed at least three times on different days.
To stress the cells we utilized hydrogen peroxide, known to stimulate ROS production in Gram-negative cells.^79,80 We incubated bacteria from the E. coli strain (10^6 colony forming units (CFU)/mL) with 500 nM hydrogen peroxide for 2 hours at 37° C. Following precipitation and resuspension of this bacteria in media with no H2O2, we added compound 7. In parallel, compound 7 was also added to bacteria that were not exposed to H2O2.

For the molecule `CC1=C(Br)C(C)=[N+]2C1=C(CC1(C)CCc3c(C)c(O)c(C)c(C)c3O1)c1c(C)c(Br)c(C)n1[B-]2(F)F` (stereo not shown) [Compound 7, 8-((6-Hydroxy-2,5,7,8-tetramethylchroman-2-yl)-methyl)-2,6-dibromo-1,3,5,7-tetramethyl], the “colony forming units upon prolonged illumination, single agent” value in test [1] (light 0 to 60 minutes, 1.6 mW/cm^2, 520 nm, ciprofloxacin 1 microgram per milliliter only or Br2B-PMHC 10 micromolar only) is listed as “no observed reduction in colony forming units”. The “colony forming units upon illumination in the presence of ciprofloxacin” value in test [1] (light, 1 microgram per milliliter ciprofloxacin and 5 or 10 micromolar Br2B-PMHC) is recorded as “clear reduction in colony forming units”. For the same molecule, in test [2], the “enhancement in φΔ^D (^1O2 production) on activation” value is roughly 40 fold. In addition, the “colony forming units after irradiation, stressed cells” value in test [3] (E. coli incubated with 500 nM hydrogen peroxide 2 h, 1 h irradiation 2.6 mW/cm^2, 520 nm) is reported as “drastic drop in colony forming units”. Moreover, the MIC in test [3] (Escherichia coli, ATCC25922, 7 activated in the stressed bacterial suspension (500 nM hydrogen peroxide), 9 pre-activated with dicumyl peroxide, 1 hour, read-out: PD-MIC) came to 10 µM (≈ 6.24 µg/mL). In addition, the “colony forming units, dark controls” value in test [3] (in the dark, 7 with or without H2O2) is listed as “no effect in the CFU”. Also, in test [3] (no H2O2, 1 h irradiation 2.6 mW/cm^2, 520 nm), the “colony forming units after irradiation, non-stressed cells” value was “No inactivation was observed”.
